Experimental data taken from US12528807B2, “Solid forms of {6-[(2-amino-3-chloropyridin-4-yl)sulfanyl]-3-[(3S,4S)-4-amino-3-methyl-2-oxa-8-azaspiro[4.5]decan-8-yl]-5-methylpyrazin-2-yl} methanol, a SHP2 inhibitor” (Revolution Medicines, Inc., priority 2019, dated 2026).

Experiment: Relative thermodynamic stability of the anhydrous polymorphs and transition temperatures between them (thermal techniques)
Format: physicochemical
Settings: for Temperature at which the form is thermodynamically (physically) stable: approximate
Protocol: Forms A, B, C, and D are anhydrous polymorphs of Compound 1. Thermal techniques provide data that the relative stability of the forms change with temperature. Both Forms A and C are enantiotropically related to each other and to Form D; Form A is thermodynamically stable above approximately 80° C., Form C is the stable form between approximately 80 and 43° C., and Form D is physically stable below approximately 43° C. […]
Differential scanning calorimetry performed using TA instruments Q2000: Temperature calibration was performed using NIST-traceable indium metal. The sample was placed into an aluminum Tzero crimped pan and the weight was accurately recorded. A weighed aluminum pan configured as the sample pan was placed on the reference side of the cell. The samples were analyzed from −30 to 250° C. at a ramp rate of 10° C./min.
Differential scanning calorimetry performed using Mettler-Toledo DSC3+: Temperature calibration was performed using adamantane, phenyl salicylate, indium, tin, and zinc. The sample was placed into a hermetically sealed or an open aluminum DSC pan, and the weight was accurately recorded. A weighed aluminum pan configured as the sample pan was placed on the reference side of the cell. The samples were analyzed from −30 to 250° C. at a ramp rate of 10° C./min. Although thermograms are plotted by reference temperature (x-axis), results are reported according to sample temperatures.

In the case of `Cc1nc(N2CCC3(CC2)CO[C@@H](C)[C@H]3N)c(CO)nc1Sc1ccnc(N)c1Cl` [Compound 1 Form A, {6-[(2-amino-3-chloropyridin-4-yl)sulfanyl]-3-[(3S,4S)-4-amino-3-methyl-2-oxa-8-azaspiro[4.5]decan-8-yl]-5-methylpyrazin-2-yl}methanol], the “Conversion between Forms A, C, and D upon reaching the corresponding relevant temperatures” value (shortened to “Conversion between Forms A, C”) is reported as “immediate (and reversible)”, the “Relative Thermodynamic Stability of Polymorphs” value (“Relative Thermodynamic Stability” for short) (above ~80° C.) is reported as “A > (C and D and B)” and the “Temperature at which the form is thermodynamically (physically) stable” value (from here on “Temperature … (physically) stable”) is reported as greater than 80 °C. The “Temperature … (physically) stable” value (listed as Form A) was greater than 80 °C, the “Relative Thermodynamic Stability” value (between ~43 and ~65° C.) was “C > D > A > B” and the “Relative Thermodynamic Stability” value (between ~65 and ~80° C.) was “C > A > (D and B)”. For the same compound, the “Relationship to Form B (table of estimated transition point temperatures)” value (relative to Form B) was “monotropic”, the “Relative Thermodynamic Stability” value (subambient up to ~43° C.) was “D > C > A > B” and the “Estimated Transition Point Temperature between Enantiotropic Polymorphs, to Form C” value (transition to Form C) was roughly 80 °C. For the same compound, the “Estimated Transition Point Temperature between Enantiotropic Polymorphs, to Form D” value was roughly 65 °C.
With `Cc1nc(N2CCC3(CC2)CO[C@@H](C)[C@H]3N)c(CO)nc1Sc1ccnc(N)c1Cl` [Compound 1 Form B, {6-[(2-amino-3-chloropyridin-4-yl)sulfanyl]-3-[(3S,4S)-4-amino-3-methyl-2-oxa-8-azaspiro[4.5]decan-8-yl]-5-methylpyrazin-2-yl}methanol] the “Thermodynamic stability in words” value was “metastable form at all temperatures”.
In the case of `Cc1nc(N2CCC3(CC2)CO[C@@H](C)[C@H]3N)c(CO)nc1Sc1ccnc(N)c1Cl` [Compound 1 Form C, {6-[(2-amino-3-chloropyridin-4-yl)sulfanyl]-3-[(3S,4S)-4-amino-3-methyl-2-oxa-8-azaspiro[4.5]decan-8-yl]-5-methylpyrazin-2-yl}methanol], the “Conversion between Forms A, C” value is reported as “immediate (and reversible)”, the “Relative Thermodynamic Stability” value (above ~80° C.) is reported as “A > (C and D and B)” and the “Relative Thermodynamic Stability” value (between ~43 and ~65° C.) is reported as “C > D > A > B”. The “Relative Thermodynamic Stability” value (between ~65 and ~80° C.) was “C > A > (D and B)”, the “Relative Thermodynamic Stability” value (subambient up to ~43° C.) was “D > C > A > B” and the “Estimated Transition Point Temperature between Enantiotropic Polymorphs, to Form D” value was roughly 43 °C.
In the case of `Cc1nc(N2CCC3(CC2)CO[C@@H](C)[C@H]3N)c(CO)nc1Sc1ccnc(N)c1Cl` [Compound 1 Form D, {6-[(2-amino-3-chloropyridin-4-yl)sulfanyl]-3-[(3S,4S)-4-amino-3-methyl-2-oxa-8-azaspiro[4.5]decan-8-yl]-5-methylpyrazin-2-yl}methanol], the “Conversion between Forms A, C” value is reported as “immediate (and reversible)”, the “Relative Thermodynamic Stability” value (above ~80° C.) is reported as “A > (C and D and B)” and the “Temperature … (physically) stable” value is reported as less than 43 °C. For the same compound, the “Temperature … (physically) stable” value (listed as Form D) was less than 43 °C, the “Relative Thermodynamic Stability” value (between ~43 and ~65° C.) was “C > D > A > B” and the “Relative Thermodynamic Stability” value (between ~65 and ~80° C.) was “C > A > (D and B)”. The “Relative Thermodynamic Stability” value (subambient up to ~43° C.) was “D > C > A > B”.
